{"source": "patent US20040191842A1", "about": "“Chemopreventive and therapeutic aspects of polyphenolic compositions and assays” (Medical College of Georgia Research Institute, Inc., priority 2002, published 2004)", "test_system": "transglutaminase", "assay": "Transglutaminase activity assay, exponentially growing keratinocytes", "format": "cell-based, human", "details": "50 μM or 100 μM EGCG", "description": "Transglutaminase activity assay. Normal human epidermal keratinocytes in early passages (2-3) were allowed to grow in 6-well tissue culture plates prior to EGCG exposure. The cells were scraped in homogenization buffer (0.1 M Tris/acetate, pH 8.5, containing 0.2 mM EDTA, 20 μM AEBSF, 2 μg/mL aprotinin, 2 μM leupeptin and 1 μM pepstatin A), collected by centrifugation and subjected to one freeze-thaw cycle prior to lysis by sonication. Unlysed cells were pelleted by centrifugation and aliquots of the supernatant collected for the determination of transglutaminase activity and protein concentration. Protein quantities were determined using the BioRad Protein Assay with bovine serum albumin as standard. Transglutaminase activity was measured as the incorporation of [^3 H] putrescine into dimethylated casein, as described previously (Jung et al., J Invest Dermatol, 1998; 110:318-23).", "data": [{"molecule": "O=C(O[C@@H]1Cc2c(O)cc(O)cc2O[C@@H]1c1cc(O)c(O)c(O)c1)c1cc(O)c(O)c(O)c1", "note": "[EGCG, (−)-epigallocatechin-3-gallate]", "values": [{"measurement": "transglutaminase activity vs control", "result": "significantly higher activity"}]}]}
